Test results taken from patent US20040086900A1, “Cloning of mammalian genes in microbial organisms and methods for pharmacological screening” (priority 1990, published 2004).
“Also recorded” adds a separate entry of the source. Values belong to the molecule of their own block, whether it stands above or below them.

Experiments:
yeast PDE2 = biological target: T1, yeast PDE2 (Saccharomyces cerevisiae, UniProt P06776); assay: Phosphodiesterase activity assay, cell free extract of 10 DAB yeast expressing yeast PDE2; assay type: biochemical, S. cerevisiae
T1 construct: made in house; host or cells: S. cerevisiae strain 10 DAB (pde1- pde2-), cell free extract
Protocol: (§1) Yeast cells were grown at 30° C. for 36 hours in one liter cultures of synthetic media (SC-leucine). Cells were harvested and washed with buffer C ([…], 0.1 mM MgCl2, 0.1 mM EGTA, 1 mM β-mercaptoethanol), were resuspended in 30 ml buffer C with 50 μl 1M PMSF, and were disrupted with a French press. The extracts were centrifuged at 1,600 g for 10 min and the supernatants were spun at 18,000 g for 90 min (4° C.). The supernatant was assayed for phosphodiesterase activity (Sass, P., et al., Proc. Natl. Acad. Sci. USA 83:9303 (1986); Nikawa, J., et al., Mol. Cell. Biol. 7:3629 (1987)). All the reactions contained Tris-HCl (pH7.5) (100 mM), cell extract (50 μg protein/ml), 5′-nucleotidase (Sigma, 20 ng/ml) and 10 MM Mg^2+ (unless otherwise stated) and the indicated cyclic nucleotide concentrations. Assays for the cGMP hydrolysis used 1.5 μM cGMP. […] Reactions were incubated for 10 min at 30° C. and stopped with 5× stop solution (250 mM EDTA, 25 mM AMP, 100 mMcAMP).
This example illustrates the use of the genes and cells described in Example 1 to identify chemical compounds which inhibit the activity of a known enzyme, the rat DPD phosphodiesterase. To test the efficiency of known inhibitory compounds, cell free extracts were made as described in Phosphodiesterase Assays. Yeast cells deficient in endogenous phosphodiesterase (10 DAB), and expressing the rat DPD or yeast PDE2 genes from the described expression vector, were used. One liter cultures were harvested, washed in buffer C (20 mM MES/0.1 mM MgCl2/0.1 mM EGTA/1 mM 2-mercaptoethanol), resuspended in buffer C containing 1.5 mM phenylmethylsulfonyl fluoride, and disrupted in a French press at 4° C. Cell extracts were clarified at 100 g for 10 minutes and at 18000 g for 90 minutes. […] About 10^4 cpm were obtained for 10 minutes reactions and backgrounds (phosphodiesterase deficient-yeast or no extract) were about 300 cpm. The cytosolic fraction was assayed in the presence or absence of inhibitory compounds. […] The percent inhibition represents the decrease in phosphodiesterase activity relative to measurements made in the absence of inhibitors.

[1] = biological target: T2, rat DPD phosphodiesterase (Rattus norvegicus, UniProt P14646); assay: Phosphodiesterase activity assay, cell free extract of 10 DAB yeast expressing rat DPD; assay type: biochemical; settings: for Inhibition (%): DPD-1 extract
T2 construct: A large open reading frame of 562 codons was found; The first ATG appears at codon 46; made in house; host or cells: S. cerevisiae strain 10 DAB (pde1- pde2-) transformed with pADPD, cell free extract
T2 sequence (P14646 220-736): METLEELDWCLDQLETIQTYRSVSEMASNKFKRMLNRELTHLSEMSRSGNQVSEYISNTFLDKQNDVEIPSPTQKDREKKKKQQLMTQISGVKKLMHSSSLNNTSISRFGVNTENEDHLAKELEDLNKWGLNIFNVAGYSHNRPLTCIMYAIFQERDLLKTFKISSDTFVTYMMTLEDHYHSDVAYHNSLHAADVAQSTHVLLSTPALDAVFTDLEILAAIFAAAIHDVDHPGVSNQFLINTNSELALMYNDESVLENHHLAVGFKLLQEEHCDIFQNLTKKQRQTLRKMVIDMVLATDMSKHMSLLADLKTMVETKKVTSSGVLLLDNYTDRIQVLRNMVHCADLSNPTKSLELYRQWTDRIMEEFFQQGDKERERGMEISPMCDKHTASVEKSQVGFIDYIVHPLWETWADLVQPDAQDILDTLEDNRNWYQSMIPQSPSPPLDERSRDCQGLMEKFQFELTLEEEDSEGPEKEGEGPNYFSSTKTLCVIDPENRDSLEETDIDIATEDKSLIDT
Protocol: In order to analyse the biochemical properties of the DPD gene product, crude cell extracts were prepared from one liter cultures of 10 DAB which had been transformed with either pADNS or pADPD.
as §1
This example illustrates the use of the genes and cells described in Example 1 to identify chemical compounds which inhibit the activity of a known enzyme, the rat DPD phosphodiesterase. To test the efficiency of known inhibitory compounds, cell free extracts were made as described in Phosphodiesterase Assays. Yeast cells deficient in endogenous phosphodiesterase (10 DAB), and expressing the rat DPD or yeast PDE2 genes from the described expression vector, were used. One liter cultures were harvested, washed in buffer C (20 mM MES/0.1 mM MgCl2/0.1 mM EGTA/1 mM 2-mercaptoethanol), resuspended in buffer C containing 1.5 mM phenylmethylsulfonyl fluoride, and disrupted in a French press at 4° C. Cell extracts were clarified at 100 g for 10 minutes and at 18000 g for 90 minutes. […] The cytosolic fraction was assayed in the presence or absence of inhibitory compounds. […] The percent inhibition represents the decrease in phosphodiesterase activity relative to measurements made in the absence of inhibitors.

[2] = tested on: 10 DAB cells expressing DPD; assay: Heat shock survival of 10 DAB yeast cells expressing DPD; assay type: cell-based, S. cerevisiae; settings: 100 μM, 40 minutes pretreatment, heat shock 50° C. 30 minutes
Description: This example illustrates the use of the genes and methods described to identify chemical compounds which inhibit the function of the encoded mammalian proteins expressed in yeast, even when the function of that protein is not known. 10DAB cells, which are phosphodiesterase deficient, are sensitive to heat shock. As already discussed, when these cells express DPD, they become resistant to heat shock. […] 10 DAB cells expressing DPD were maintained in rich medium (YPD) for three days at stationary phase. […] Control cultures were not treated with any inhibitor. These cultures were then heat shocked in glass tubes at 50° C. for 30 minutes. One microliter of each culture was plated.

T1 sequence (P06776 whole entry): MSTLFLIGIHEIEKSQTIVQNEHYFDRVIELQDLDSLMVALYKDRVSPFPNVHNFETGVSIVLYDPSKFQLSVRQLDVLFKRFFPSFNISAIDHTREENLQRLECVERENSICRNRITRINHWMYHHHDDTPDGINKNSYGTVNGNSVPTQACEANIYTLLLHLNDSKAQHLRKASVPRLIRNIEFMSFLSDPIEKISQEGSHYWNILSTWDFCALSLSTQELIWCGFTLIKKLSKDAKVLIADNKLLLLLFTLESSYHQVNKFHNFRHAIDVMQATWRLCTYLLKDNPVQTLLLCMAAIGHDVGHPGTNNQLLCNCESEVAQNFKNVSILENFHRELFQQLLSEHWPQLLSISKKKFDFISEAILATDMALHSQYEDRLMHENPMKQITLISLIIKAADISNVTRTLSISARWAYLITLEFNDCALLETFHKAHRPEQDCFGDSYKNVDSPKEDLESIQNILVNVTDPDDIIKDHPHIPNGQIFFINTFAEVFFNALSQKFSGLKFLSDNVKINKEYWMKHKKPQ

SMILES: Cn1c(=O)c2[nH]cnc2n(C)c1=O [Theophylline]
inhibition at 250 µM (yeast PDE2; agent 250 μM): 0%

SMILES: COc1ccc(C2CNC(=O)C2)cc1OC1CCCC1 (stereo not drawn) [Rolipram]
inhibition at 100 µM (yeast PDE2; agent 100 μM): 0% | Heat shock sensitivity after treatment (inhibition of DPD function) [2]: much more sensitive to heat shock; also recorded: suppression of heat shock resistance

Further lines, with some results ahead:

Inhibition (%) (yeast PDE2; agent 250 μM): 0.0% | Inhibition (%) ([1]; agent 250 μM): 87. %
SMILES: CC(C)Cn1c(=O)n(C)c(=O)c2[nH]cnc21 [IBMX]

Inhibition (%) (yeast PDE2; agent 100 μM): 3.0% | Inhibition (%) ([1]; agent 0.1 μM): 35. % | Inhibition (%) ([1]; agent 1.0 μM): 52. % | Inhibition (%) ([1]; agent 10.0 μM): 79. % | Inhibition (%) ([1]; agent 100.0 μM): 92. %
SMILES: CCCCOc1cc(CC2CNC(=O)N2)ccc1OC (stereo not drawn) [R020 1724]
Inhibition of enzymatic activity of the rat DPD gene product (in words) ([1]; cell extract, summary of Example 3): most effective inhibitors of DPD activity; also recorded: inhibited

Inhibition of cAMP phosphodiesterase activity by cGMP ([1]; 5 μM cAMP, cGMP 100 fold over substrate (up to 500 μM)): unable to inhibit
SMILES: Nc1nc2c(ncn2[C@@H]2O[C@@H]3COP(=O)(O)O[C@H]3[C@H]2O)c(=O)[nH]1 [cGMP]
